Experimental data: publication PMC10871122, “Synthesis and In Vitro Evaluation as Potential Anticancer and Antioxidant Agents of Diphenylamine-Pyrrolidin-2-one-Hydrazone Derivatives” (International Journal of Molecular Sciences, 2023)

Key:
[1] = system: tested cancer cell lines (IGR39, PPC-1, MDA-MB-231, Panc-1); assay: MTT cell viability assay, statements on the tested cancer cell lines together; type: cell-based, human; conditions: for inhibition of cancer cell viability: 100 µM, 72 h, MTT; for selectivity against cancer cells: after determination of the dose-effect correlation
Experimental: (§1) The effect of synthesized compounds on cell viability was studied using 3-(4,5-dimethylthiazol-2-yl)-2,5-diphenyltetrazolium bromide (MTT; Sigma-Aldrich Co., St Louis, MO, USA) assay, as described elsewhere. To summarize, the cells were seeded in triplicates in 96-well Corning plates (IGR39, MDA-MB-231, Panc-1 and PPC1: 4 × 10^3 cells/well; HF: 5 × 10^3 cells/well). The cells were treated with 100 μM of tested compounds after 24 h of incubation. After 72 h, the MTT reagent was added and the formazan crystals that had formed were dissolved in DMSO (Sigma-Aldrich Co., St. Louis, MO, USA). The absorbance was determined with a multidetection microplate reader at 570 and 630 nm.
(§2) The compound serial dilutions ranging from 50 µM to 1.56 µM were introduced to the cells. The Hill equation was used to calculate the EC50 value, or the concentration of a compound that results in a 50% reduction in the metabolic activity of cells.

[2] = system: prostate carcinoma PPC-1 cell line; assay: MTT cell viability assay, prostate carcinoma PPC-1; type: cell-based, human; conditions: 100 µM, 72 h, MTT
Source text: (§3) The human malignant melanoma cell line IGR39, human triple-negative breast cancer MDA-MB-231, and human pancreatic carcinoma cell line Panc-1 were obtained from the American Type Culture Collection (ATCC, Manassas, VA, USA). Human foreskin fibroblasts (HF) CRL-4001 were originally obtained from ATCC and kindly provided by Prof. Helder Santos (University of Helsinki, Finland). Primary prostate carcinoma PPC-1 cell line was kindly provided by Prof. Tambet Teesalu (University of Tartu, Estonia). All cell lines were cultured in Dulbecco’s Modified Eagle’s GlutaMAX medium (Gibco (Carlsbad, CA, USA)), supplemented with 10,000 U/mL penicillin, 10 mg/mL streptomycin (Gibco), and 10% fetal bovine serum (Gibco). Cell cultures were grown at 37 °C in a humidified atmosphere containing 5% CO2. They were used until the passage of 20.
as §1, §2

[3] = system: human melanoma IGR39 cell line; assay: MTT cell viability assay, melanoma IGR39; type: cell-based; conditions: 100 µM, 72 h, MTT
Source text: as §3, §1, §2

[4] = Ferric reducing antioxidant power (FRAP) assay; conditions: for FRAP reducing power (Fe^2+): absorbance at 593 nm; for reducing power activity compared to the control antioxidant: vs protocatechuic acid
Source text: The ferric reducing antioxidant power (FRAP) assay was used to evaluate the antioxidant potential of new compounds 2–17. Antioxidant assays are based on determining reduction power reactions (e.g., reduction Fe^3+ to Fe^2+) or scavenging free radicals (DPPH, ABTS). The FRAP assay is based on the method of single electron transfer (SET), measuring the reduction in the complex of ferric ions (Fe^3+)-ligand to the blue ferrous complex (Fe^2+). This method uses 2,4,6-tripyridyl-s-triazine (TPTZ) as the linking ligand to the iron. The antioxidant activity of the synthesized compounds was compared with that of the well-known antioxidant protocatechuic acid. […] PCA is a building block for pharmaceuticals and is widely used to produce many medicinal products such as veratridine (sodium channel inactivation inhibitor), erlotinib (antineoplastic), Picatin II (treatment of hepatitis B), itopride hydrochloride (gastrointestinal motility drug). PCA can also cause the induction of apoptosis of human leukemia cells. Moreover, the antioxidant activity of PCA is based on the reduction in free radical formation via the up-regulation of genes encoding enzymes with neutralizing activities.
Antioxidant activity was determined as an increase in absorbance at 593 nm, and the results were expressed as of Fe^2+ μmol/L and in relation to antioxidants, and protocatechuic acid, as positive control. The FRAP reagent contained 2.5 mL of 10 mM TPTZ solution in 40 mM HCl as well as 2.5 mL of FeCl3 (20 mM) and 25 mL of acetate buffer (0.3 M, pH = 3.6). Then, 100 μL of analyzed compounds (20 mM) were mixed with 3 mL of the FRAP reagent. The absorbance of the reaction mixture was measured spectrophotometrically at 593 nm using a UV-1280 UV-VIS spectrophotometer (Shimadzu Corporation, Kyoto, Japan). To compose the calibration curve, five concentrations of FeSO4·7H2O (5, 10, 15, 20, 25 μM) were used, and the absorbance was measured as a sample solution.

[5] = system: human foreskin fibroblasts (HF) CRL-4001; assay: MTT cell viability assay, fibroblasts; type: cell-based; conditions: 100 µM, 72 h
Source text: as §3, §1, §2

Structure (SMILES): O=C(NN=Cc1ccc[nH]1)C1CC(=O)N(c2ccc(Nc3ccccc3)cc2)C1 (stereo not shown) [Compound 11, N′-((1H-pyrrol-2-yl)methylene)-5-oxo-1-(4-(phenylamino)phenyl)pyrrolidine-3-carbohydrazide]
- inhibition of cancer cell viability [1]: less than 20%
- effect on cell viability compared among the cell lines [2]: most active against the prostate carcinoma cell line
- melting point: 234 to 235 °C

Structure (SMILES): CC(=NNC(=O)C1CC(=O)N(c2ccc(Nc3ccccc3)cc2)C1)c1ccccc1 (stereo not shown) [Compound 15, 5-Oxo-1-(4-(phenylamino)phenyl)-N′-(1-phenylethylidene)pyrrolidine-3-carbohydrazide]
- inhibition of cancer cell viability [1]: less than 20%
- melting point: 225 to 226 °C
- effect on cell viability compared among the cell lines [3]: strongest effect on melanoma cells
- FRAP reducing power (Fe^2+) [4]: 123.05 µmol/L
- reducing power activity compared to the control antioxidant [4]: higher than those of known antioxidants used as the controls

Structure (SMILES): O=C(NN=Cc1ccc(Cl)cc1)C1CC(=O)N(c2ccc(Nc3ccccc3)cc2)C1 (stereo not shown) [Compound 4, N′-(4-chlorobenzylidene)-5-oxo-1-(4-(phenylamino)phenyl)pyrrolidine-3-carbohydrazide]
- selectivity against cancer cells [1]: nonselective against cancer cells
- effect on cell viability compared among the cell lines [2]: most active against the prostate carcinoma cell line
- melting point: 209 to 210 °C

Structure (SMILES): CN(C)c1ccc(C=NNC(=O)C2CC(=O)N(c3ccc(Nc4ccccc4)cc3)C2)cc1 (stereo not shown) [Compound 7, N′-(4-(dimethylamino)benzylidene)-5-oxo-1-(4-(phenylamino)phenyl)pyrrolidine-3-carbohydrazide]
- melting point: 218 to 219 °C
- effect on fibroblasts compared to cancer cell lines [5]: affected fibroblasts more than the tested cancer cell lines
- reducing power activity compared to the control antioxidant [4]: higher than those of known antioxidants used as the controls

Structure (SMILES): O=C(NN=Cc1ccccc1[N+](=O)[O-])C1CC(=O)N(c2ccc(Nc3ccccc3)cc2)C1 (stereo not shown) [Compound 9, N′-(2-nitrobenzylidene)-5-oxo-1-(4-(phenylamino)phenyl)pyrrolidine-3-carbohydrazide]
- inhibition of cancer cell viability [1]: less than 20%
- melting point: 192 to 193 °C
- effect on cell viability compared among the cell lines [3]: strongest effect on melanoma cells
- FRAP reducing power (Fe^2+) [4]: 118.32 µmol/L
- reducing power activity compared to the control antioxidant [4]: higher than those of known antioxidants used as the controls

Structure (SMILES): CC(=NNC(=O)C1CC(=O)N(c2ccc(Nc3ccccc3)cc2)C1)c1ccc(N)cc1 (stereo not shown) [Compound 16, N′-(1-(4-aminophenyl)ethylidene)-5-oxo-1-(4-(phenylamino)phenyl)pyrrolidine-3-carbohydrazide]
- inhibition of cancer cell viability [1]: less than 20%
- melting point: 230 to 231 °C
- effect on cell viability compared among the cell lines [3]: strongest effect on melanoma cells
- antioxidant activity (FRAP) relative to protocatechuic acid [4]: 1.2 times
- FRAP reducing power (Fe^2+) [4]: 132.14 µmol/L
- reducing power activity compared to the control antioxidant [4]: higher than those of known antioxidants used as the controls

Structure (SMILES): O=C(NN=Cc1ccc(Br)cc1)C1CC(=O)N(c2ccc(Nc3ccccc3)cc2)C1 (stereo not shown) [Compound 3, N′-(4-bromobenzylidene)-5-oxo-1-(4-(phenylamino)phenyl)pyrrolidine-3-carbohydrazide]
- selectivity against cancer cells [1]: nonselective against cancer cells
- melting point: 198 to 199 °C
- effect on cell viability compared among the cell lines [3]: strongest effect on melanoma cells
- FRAP reducing power (Fe^2+) [4]: 120.08 µmol/L
- reducing power activity compared to the control antioxidant [4]: higher than those of known antioxidants used as the controls

Structure (SMILES): O=C(O)c1ccc(O)c(O)c1 [protocatechuic acid, 3,4-dihydroxybenzoic acid, reference compound]
- FRAP reducing power (Fe^2+) [4]: 109.05 µmol/L
